Patent US20250375405A1, “N-LACTOYL-PHENYLALANINE FOR PREVENTING AND/OR TREATING ISCHEMIC HEART DISEASE AND METHOD FOR PREVENTING AND/OR TREATING ISCHEMIC HEART DISEASE” (Harbin Medical University, priority 2024, published 2025)

Legend:
[1] = system: mouse model of myocardial ischemia; assay: Mouse model of myocardial ischemia (left anterior descending coronary artery ligation), echocardiographic cardiac function; assay type: in vivo, mice; conditions: mouse MI model, Lac-Phe 20 mg/kg intraperitoneally, 1 week later, compared with the MI group
Method: The surgery for left anterior descending coronary artery ligation was performed on mice to establish a mouse model of myocardial ischemia (MI group). […] Mice in the MI group were intraperitoneally injected with Lac-Phe (20 mg/kg), and then anesthetized 1 week later. An M-Mode echocardiogram was obtained under the guidance of B-Mode on a Doppler ultrasound Vevo2100 imaging system for small animals, and 10 or more cardiac cycles were recorded. Instrumental analysis software was used to measure various cardiac indicators of mice to assess the cardiac functions of the mice, including a left ventricular internal dimension systole (LVID), a left ventricular end systolic volume (LVESV), an inter-ventricular septum end-stolic thickness (IVS), an E/A ratio, an ejection fraction (EF), and a fraction shortening (FS).

[2] = system: human umbilical vein endothelial cells (HUVECs); assay: Viability of hypoxic endothelial cells, CCK8 method; assay type: cell-based; conditions: Lac-Phe final concentrations 5, 10, 20 and 40 μM added 8 hours before hypoxia for 24 hours
Method: The Lac-Phe was added to human umbilical vein endothelial cells (HUVECs), and 8 hours later, the HUVECs were placed in a hypoxia incubator and cultured under hypoxia for 24 hours (N2 95%, CO2 5%). The cell viability was evaluated by Cell Counting Kit-8 (CCK8) method for the normal control group (CTRL), hypoxia group (Hypoxia), and Lac-Phe-treated hypoxia group.

HUVECs [3] = assay: Apoptosis of hypoxic endothelial cells by flow cytometry; assay type: cell-based, human; conditions: Lac-Phe final concentration 20 μM, added 8 hours before hypoxia for 24 hours
Method: The Lac-Phe was added to HUVECs, and 8 hours later, the HUVECs were placed in a hypoxia incubator and cultured under hypoxia for 24 hours (N2 95%, CO2 5%). The cell apoptosis was determined by flow cytometry for the normal control group (CTRL), hypoxia group (Hypoxia), and Lac-Phe-treated hypoxia group.

HUVECs [4] = assay: Endothelial cell migration, wound closure assay; assay type: cell-based, human; conditions: Lac-Phe final concentration 10 μM, 12, 24 and 36 hours, versus control with 0.1% DMSO
Method: HUVECs were divided into 2 groups: a control group (CTRL, including 0.1% of dimethylsulfoxide (DMSO)), and a Lac-Phe-treated group (final concentration: 10 μM). Cell monolayers were wounded in wells of a cell culture plate along the central axis of each well by an autoclaved white pipette tip, suspended cells in each well were washed with phosphate buffered saline (PBS), and a medium without fetal bovine serum was added to each well. The wounds were photographed with an inverted microscope, that is, the wound area was recorded at 0 hour. The cells were then further incubated in a cell culture incubator at 37° C. for 12 hours, 24 hours, and 36 hours. Then, the wounds were photographed under the inverted microscope, that is, the wound area was recorded. The ImageJ software was used to quantitatively assess the wound closure (FIG. 4A-FIG. 4B).

HUVECs [5] = assay: Endothelial cell tube formation assay; assay type: cell-based, human; conditions: Lac-Phe final concentration 20 μM, 24 hours after administration
Method: HUVECs were divided into 2 groups: a control group (CTRL, including 0.1% of DMSO), and a Lac-Phe-treated group (final concentration: 20 μM). 24 hours after administration, the endothelial cell tube formation assay was performed.
It can be seen from the experimental results that Lac-Phe can increase the length of branches and the number of branch points formed from HUVECs (FIG. 5A-FIG. 5C). The above results also indicate that Lac-Phe has the potential to promote angiogenesis.

[6] = system: Primary mouse cardiomyocytes; assay: Viability of hypoxic cardiomyocytes, CCK8 method; assay type: cell-based; conditions: Lac-Phe final concentrations 10 μM and 20 μM, hypoxia treatment for 24 hours
Method: Primary mouse cardiomyocytes were divided into the following 4 groups: a control group (CTRL, including 0.1% of DMSO), a hypoxia group (a hypoxia treatment was performed for 24 hours), and hypoxia+Lac-Phe groups (cardiomyocytes were treated with Lac-Phe at final concentrations of 10 μM and 20 μM, respectively, and a hypoxia treatment was performed for 24 hours). The viability of cardiomyocytes was assayed by the CCK8 method.
It can be seen from the experimental results that Lac-Phe has the function of protecting cardiomyocytes against hypoxic injury.

Macrophages (RAW264.7) = assay: LPS-induced pro-inflammatory cytokine expression in macrophages, qRT-PCR; assay type: cell-based; conditions: LPS 100 ng/ml, Lac-Phe final concentration 20 μM, 24 hours
Method: Macrophages (RAW264.7) were divided into the following 3 groups: a control group (CTRL, including 0.1% of DMSO), a lipopolysaccharide (LPS)-treated group (LPS-induced inflammatory responses in macrophages, a concentration: 100 ng/ml), and an LPS+Lac-Phe-treated group (Lac-Phe was added to LPS-induced macrophages at a final concentration of 20 μM). 24 hours after administration, RNA was extracted from cells in each group, and expression levels of pro-inflammatory cytokines IL-6 and TNFα in cells in each group were determined by quantitative real-time polymerase chain reaction (qRT-PCR). […] The above results also indicate that Lac-Phe has the anti-inflammatory potential.

experimental mice = conditions: supplementation of Lac-Phe, earlier studies; cited from earlier work

C[C@H](O)C(=O)N[C@@H](Cc1ccccc1)C(=O)O [Lac-Phe, N-lactoyl-phenylalanine]
cardiac function (LVID, LVESV, IVS, E/A ratio, EF, FS) by echocardiogram [1]: significant improvement effect on the cardiac function | cell viability of hypoxic HUVECs [2]: significantly improved | number of apoptotic HUVECs (HUVECs [3]): significantly reduced | migration of endothelial cells (wound closure) (HUVECs [4]): promoting the migration of endothelial cells | length of branches formed from HUVECs (HUVECs [5]): increase | number of branch points formed from HUVECs (HUVECs [5]): increase | viability of hypoxic cardiomyocytes [6]: significantly alleviate the hypoxic injury of cardiomyocytes | expression level of pro-inflammatory cytokine IL-6 (Macrophages (RAW264.7)): significantly decreased | expression level of pro-inflammatory cytokine TNFα (Macrophages (RAW264.7)): significantly decreased | food intake of experimental mice (experimental mice): effectively reduce the food intake
